Laboratory results as given in BindingDB's records for doi:10.7270/Q2Q52N1X (Vanderbilt Screening Center for GPCRs, Ion Channels and …, 2009).

Biological target: T1, Solute carrier family 12 member 5 (Homo sapiens, UniProt Q9H2X9)
T1 sequence (Q9H2X9 whole entry): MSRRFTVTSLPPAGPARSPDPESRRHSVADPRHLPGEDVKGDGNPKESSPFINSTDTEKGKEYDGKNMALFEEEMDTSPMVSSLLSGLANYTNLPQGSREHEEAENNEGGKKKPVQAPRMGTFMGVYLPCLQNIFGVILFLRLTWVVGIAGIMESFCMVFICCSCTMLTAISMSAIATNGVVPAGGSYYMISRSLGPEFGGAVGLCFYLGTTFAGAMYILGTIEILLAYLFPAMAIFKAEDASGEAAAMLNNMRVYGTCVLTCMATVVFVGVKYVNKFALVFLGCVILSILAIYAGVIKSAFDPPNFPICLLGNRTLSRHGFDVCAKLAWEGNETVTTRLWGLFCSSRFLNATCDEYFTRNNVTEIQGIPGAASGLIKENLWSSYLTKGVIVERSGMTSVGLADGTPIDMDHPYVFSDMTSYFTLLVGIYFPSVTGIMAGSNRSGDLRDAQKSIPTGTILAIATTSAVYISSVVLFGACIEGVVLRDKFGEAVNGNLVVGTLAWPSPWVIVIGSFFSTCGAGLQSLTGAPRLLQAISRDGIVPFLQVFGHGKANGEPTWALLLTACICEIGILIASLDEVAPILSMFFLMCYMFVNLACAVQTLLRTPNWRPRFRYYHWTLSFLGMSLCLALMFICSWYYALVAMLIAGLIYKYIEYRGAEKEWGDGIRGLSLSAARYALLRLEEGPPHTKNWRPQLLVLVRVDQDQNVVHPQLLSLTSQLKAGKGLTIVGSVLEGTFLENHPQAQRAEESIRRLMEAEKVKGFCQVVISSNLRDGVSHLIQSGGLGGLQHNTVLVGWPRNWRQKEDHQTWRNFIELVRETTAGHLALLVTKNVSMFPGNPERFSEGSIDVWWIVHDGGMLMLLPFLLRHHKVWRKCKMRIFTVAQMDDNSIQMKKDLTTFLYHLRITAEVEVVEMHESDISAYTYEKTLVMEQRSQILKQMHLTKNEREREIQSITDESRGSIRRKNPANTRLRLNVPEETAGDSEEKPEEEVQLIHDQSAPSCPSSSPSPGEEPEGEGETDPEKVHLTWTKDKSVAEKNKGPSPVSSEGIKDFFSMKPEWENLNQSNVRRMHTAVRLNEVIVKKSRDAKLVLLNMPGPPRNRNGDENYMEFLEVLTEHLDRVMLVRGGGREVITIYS
Test: KCC2 modulator potency by thallium flux, dose response, cell-based, HEK293 KCC2, FluoZin-2 fluorescence (AID 1736)
Conditions: not given

EC50 | Compound
12.3 µM | c1ccc(-c2nnc(Sc3ncnc4c3cnn4-c3ccccc3)[nH]2)cc1 [SMR000019566]
155 µM | CCOC(=O)c1sc(Nc2nc3c(OC)cccc3s2)nc1C [SMR000027213]
1.56 µM | CC(NNC(=O)c1ccc(Br)cc1)=C1C(=O)c2ccccc2C1=O [SMR000116009]
9.12 µM | O=C(CSc1nccc(=O)[nH]1)N1CCc2ccccc2C1 [SMR000124078]
145 µM | CC(C)NC(=S)NNC1=c2cc(C(C)C)ccc2=NC1=O [SMR000242097]
3.68 µM | CN1/C(=C\C(=S)NC(=O)c2cccc(Br)c2)C(C)(C)c2ccccc21 [SMR000254682]
878 µM | Cc1nc(SCc2ccc(F)cc2)c([N+](=O)[O-])[nH]1 [SMR000271028]
77.3 µM | COC(=O)Cc1[nH]n(-c2nc3ccccc3s2)c(=O)c1C(C)=Nc1ccc(Cl)cc1 [methyl 2-[(4E)-1-(1,3-benzothiazol-2-yl)-4-[1-[(4-chlorophenyl)amino]ethylidene]-5-oxidanylidene-pyrazol-3-yl]ethanoate]

Same assay, conditions: inactive by the depositor's call

EC50 | Compound
35.1 µM | COc1ccc(N(CC(=O)Nc2ccc(C)c(C)c2)S(=O)(=O)c2c(C)n[nH]c2C)cc1 [SMR000027403]
1.88 µM | CCOC(=O)c1c(C)[nH]c(C)c1C(=O)CSc1nc(N)cc(N)n1 [SMR000063952]
34.4 µM | COc1ccc(CN(C(=O)c2ccc(-c3ccccc3)[nH]2)C(C(=O)NC(C)(C)C)c2ccncc2)cc1 (configuration not stated) [SMR000279859]
6.18 µM | CC1=NN(C(=O)c2ccc(Br)cc2)C(O)(C(F)(F)OC(F)(F)F)C1 (configuration not stated) [[5-[bis(fluoranyl)-(trifluoromethyloxy)methyl]-3-methyl-5-oxidanyl-4H-pyrazol-1-yl]-(4-bromophenyl)methanone]
